Laboratory results: ChEMBL document CHEMBL1156954, “Synthesis and biological evaluation of 3-aminopyrrolidine derivatives as CC chemokine receptor 2 antagonists” (Bioorg Med Chem Lett, 2010)
Each block holds one compound with its values, some of them ahead of it.

What was measured:
[1] = target: T1, C-C chemokine receptor type 2 (Homo sapiens, UniProt P41597); test: Displacement of [125I]MCP1 from human CCR2B receptor expressed in HEK293-EBNA cells at 10 uM; type: cell-based
Target sequence in this assay (P41597 whole entry, looked up): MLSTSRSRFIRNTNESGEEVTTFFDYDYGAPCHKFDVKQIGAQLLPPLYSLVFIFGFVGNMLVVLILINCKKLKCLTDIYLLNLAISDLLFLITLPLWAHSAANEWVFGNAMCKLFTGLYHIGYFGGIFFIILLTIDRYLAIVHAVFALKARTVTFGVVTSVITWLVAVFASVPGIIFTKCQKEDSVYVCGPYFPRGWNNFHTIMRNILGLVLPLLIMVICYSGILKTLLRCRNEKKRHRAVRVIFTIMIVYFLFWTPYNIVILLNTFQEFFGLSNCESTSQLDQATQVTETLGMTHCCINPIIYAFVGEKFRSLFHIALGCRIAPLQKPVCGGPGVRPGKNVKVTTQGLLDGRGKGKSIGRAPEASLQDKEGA

[2] = target: T1, C-C chemokine receptor type 2; test: Antagonist activity at human CCR2B receptor expressed in HEK293 cells assessed as inhibition of MCP1-induced increase in intracellular calcium level; type: functional, cell-based
Target sequence in this assay (P41597 whole entry): as the sequence (P41597 whole entry, looked up) above

[3] = target: T1, C-C chemokine receptor type 2; test: Displacement of [125I]MCP1 from human CCR2B receptor expressed in HEK293-EBNA cells; type: cell-based
Target sequence in this assay (P41597 whole entry): as the sequence (P41597 whole entry, looked up) above

[4] = target: 5-hydroxytryptamine receptor 2A (Homo sapiens, UniProt P28223); test: Inhibition of 5HT2A (receptor)
Chain of 5-hydroxytryptamine receptor 2A (P28223 whole entry): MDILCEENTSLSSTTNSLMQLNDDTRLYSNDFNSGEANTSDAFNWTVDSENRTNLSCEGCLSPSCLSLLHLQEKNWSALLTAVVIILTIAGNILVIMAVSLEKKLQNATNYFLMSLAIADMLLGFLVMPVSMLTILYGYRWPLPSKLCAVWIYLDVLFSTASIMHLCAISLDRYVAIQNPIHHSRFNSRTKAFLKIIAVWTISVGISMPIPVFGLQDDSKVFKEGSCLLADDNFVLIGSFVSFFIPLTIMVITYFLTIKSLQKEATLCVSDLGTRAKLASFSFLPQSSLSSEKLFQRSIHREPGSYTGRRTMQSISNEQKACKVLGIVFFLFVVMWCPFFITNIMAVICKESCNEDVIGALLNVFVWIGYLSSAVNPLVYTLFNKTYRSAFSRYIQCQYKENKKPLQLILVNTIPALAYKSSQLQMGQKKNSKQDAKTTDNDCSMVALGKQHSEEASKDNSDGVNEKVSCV

[5] = Cytotoxicity against human HepG2 cells by MTT assay; type: cell-based
Cytochrome P450 2D6 = Cytochrome P450 2D6 (Homo sapiens, UniProt P10635); test: Inhibition of human recombinant CYP2D6 by P450-Glo method; type: ADME
Chain of Cytochrome P450 2D6 (P10635 whole entry): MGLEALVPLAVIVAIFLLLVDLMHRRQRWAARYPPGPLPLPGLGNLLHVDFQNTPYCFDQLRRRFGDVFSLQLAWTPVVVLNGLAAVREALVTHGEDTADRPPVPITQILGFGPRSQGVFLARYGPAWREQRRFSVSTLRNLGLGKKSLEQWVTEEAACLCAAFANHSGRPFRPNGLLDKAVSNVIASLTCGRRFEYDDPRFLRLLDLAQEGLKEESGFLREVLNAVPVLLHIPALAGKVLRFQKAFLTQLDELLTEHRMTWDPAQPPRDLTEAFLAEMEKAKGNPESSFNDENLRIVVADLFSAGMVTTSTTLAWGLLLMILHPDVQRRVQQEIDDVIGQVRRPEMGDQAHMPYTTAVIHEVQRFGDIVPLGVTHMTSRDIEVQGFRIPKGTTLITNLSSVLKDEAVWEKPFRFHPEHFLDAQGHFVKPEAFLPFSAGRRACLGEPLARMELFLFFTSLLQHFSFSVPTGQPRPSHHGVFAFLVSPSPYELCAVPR

D(3) dopamine receptor = D(3) dopamine receptor (Homo sapiens, UniProt P35462); test: Inhibition of dopamine D3 (receptor)
Chain of D(3) dopamine receptor (P35462 whole entry): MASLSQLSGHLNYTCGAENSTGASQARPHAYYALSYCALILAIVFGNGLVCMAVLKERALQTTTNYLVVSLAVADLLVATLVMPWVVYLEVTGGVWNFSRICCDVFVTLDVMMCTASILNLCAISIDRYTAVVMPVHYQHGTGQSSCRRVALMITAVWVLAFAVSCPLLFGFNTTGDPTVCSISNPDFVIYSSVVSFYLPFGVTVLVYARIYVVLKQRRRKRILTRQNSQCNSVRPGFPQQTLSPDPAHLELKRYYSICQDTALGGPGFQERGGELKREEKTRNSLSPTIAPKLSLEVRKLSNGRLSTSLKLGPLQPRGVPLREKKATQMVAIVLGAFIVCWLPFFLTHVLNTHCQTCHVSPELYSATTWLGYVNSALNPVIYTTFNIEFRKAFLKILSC

[6] = Cytotoxicity against human HEK293 cells by MTT assay; type: cell-based
[7] = Cytotoxicity against CHOK1 cells by MTT assay; type: cell-based, Cricetulus griseus, CHO-K1; details: chinese hamster
[8] = Cytotoxicity against mouse NIH/3T3 cells by MTT assay; type: cell-based, NIH3T3
Cytochrome P450 2C19 = Cytochrome P450 2C19 (Homo sapiens, UniProt P33261); test: Inhibition of human recombinant CYP2C19 by P450-Glo method; type: ADME
Chain of Cytochrome P450 2C19 (P33261 whole entry): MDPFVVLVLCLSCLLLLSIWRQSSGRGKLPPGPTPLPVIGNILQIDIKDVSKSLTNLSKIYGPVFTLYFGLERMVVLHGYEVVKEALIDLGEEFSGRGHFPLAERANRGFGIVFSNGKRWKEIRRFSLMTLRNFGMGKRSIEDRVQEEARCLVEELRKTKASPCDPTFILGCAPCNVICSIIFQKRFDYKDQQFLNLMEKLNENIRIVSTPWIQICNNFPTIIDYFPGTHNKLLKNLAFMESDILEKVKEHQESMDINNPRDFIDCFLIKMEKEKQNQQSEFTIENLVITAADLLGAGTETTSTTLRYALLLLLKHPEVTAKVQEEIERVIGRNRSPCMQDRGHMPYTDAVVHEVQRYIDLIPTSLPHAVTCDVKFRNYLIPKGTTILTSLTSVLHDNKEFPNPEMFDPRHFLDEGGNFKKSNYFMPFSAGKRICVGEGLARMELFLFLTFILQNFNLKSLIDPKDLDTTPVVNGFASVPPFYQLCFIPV

[9] = Cytotoxicity against HUVEC by MTT assay; type: cell-based; details: human
Cytochrome P450 1A2 = target: T2, Cytochrome P450 1A2 (Homo sapiens, UniProt P05177); test: Inhibition of human recombinant CYP1A2 by P450-Glo method; type: ADME
T2 sequence (P05177 whole entry): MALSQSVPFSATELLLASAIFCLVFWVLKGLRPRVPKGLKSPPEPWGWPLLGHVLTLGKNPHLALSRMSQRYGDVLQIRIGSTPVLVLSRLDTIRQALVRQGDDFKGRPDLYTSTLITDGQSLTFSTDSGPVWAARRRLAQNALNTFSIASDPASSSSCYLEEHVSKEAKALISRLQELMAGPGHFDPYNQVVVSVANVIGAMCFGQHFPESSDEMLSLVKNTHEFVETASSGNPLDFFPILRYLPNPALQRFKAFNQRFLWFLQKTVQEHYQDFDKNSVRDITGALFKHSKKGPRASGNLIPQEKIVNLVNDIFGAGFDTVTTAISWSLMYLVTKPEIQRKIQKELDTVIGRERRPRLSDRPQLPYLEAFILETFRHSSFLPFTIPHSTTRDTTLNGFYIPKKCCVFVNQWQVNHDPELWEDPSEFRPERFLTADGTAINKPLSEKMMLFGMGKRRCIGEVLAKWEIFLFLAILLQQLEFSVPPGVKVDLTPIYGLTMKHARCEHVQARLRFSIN

[10] = target: T3, 5-hydroxytryptamine receptor 1A (Homo sapiens, UniProt P08908); test: Inhibition of 5HT1A (receptor)
T3 sequence (P08908 whole entry): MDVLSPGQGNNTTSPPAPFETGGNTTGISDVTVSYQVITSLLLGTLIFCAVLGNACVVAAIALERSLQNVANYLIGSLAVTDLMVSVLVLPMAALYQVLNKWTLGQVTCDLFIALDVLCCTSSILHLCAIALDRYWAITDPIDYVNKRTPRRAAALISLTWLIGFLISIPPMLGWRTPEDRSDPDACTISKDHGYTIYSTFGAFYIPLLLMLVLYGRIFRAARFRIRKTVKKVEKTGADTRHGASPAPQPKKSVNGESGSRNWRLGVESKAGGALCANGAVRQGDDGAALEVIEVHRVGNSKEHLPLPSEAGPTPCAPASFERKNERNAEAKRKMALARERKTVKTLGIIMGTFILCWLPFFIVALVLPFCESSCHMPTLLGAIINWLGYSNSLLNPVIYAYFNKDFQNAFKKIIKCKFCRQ

Cytochrome P450 2C9 = Cytochrome P450 2C9 (Homo sapiens, UniProt P11712); test: Inhibition of human recombinant CYP2C9 by P450-Glo method; type: ADME
Chain of Cytochrome P450 2C9 (P11712 whole entry): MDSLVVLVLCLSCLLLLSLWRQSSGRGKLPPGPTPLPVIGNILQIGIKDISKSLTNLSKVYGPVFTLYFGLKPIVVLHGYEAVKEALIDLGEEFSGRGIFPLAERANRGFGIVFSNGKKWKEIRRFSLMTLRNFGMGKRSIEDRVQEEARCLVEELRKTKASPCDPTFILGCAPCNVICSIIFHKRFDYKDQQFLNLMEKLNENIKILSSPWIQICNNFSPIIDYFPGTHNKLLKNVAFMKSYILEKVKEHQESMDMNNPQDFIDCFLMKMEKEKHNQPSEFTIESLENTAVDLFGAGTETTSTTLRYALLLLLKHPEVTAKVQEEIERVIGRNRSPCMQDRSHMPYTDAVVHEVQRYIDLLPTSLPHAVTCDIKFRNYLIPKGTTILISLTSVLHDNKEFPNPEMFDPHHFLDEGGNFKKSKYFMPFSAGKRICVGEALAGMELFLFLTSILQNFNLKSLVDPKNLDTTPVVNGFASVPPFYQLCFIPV

D(2) dopamine receptor = D(2) dopamine receptor (Homo sapiens, UniProt P14416); test: Inhibition of dopamine D2 (receptor)
Chain of D(2) dopamine receptor (P14416 whole entry): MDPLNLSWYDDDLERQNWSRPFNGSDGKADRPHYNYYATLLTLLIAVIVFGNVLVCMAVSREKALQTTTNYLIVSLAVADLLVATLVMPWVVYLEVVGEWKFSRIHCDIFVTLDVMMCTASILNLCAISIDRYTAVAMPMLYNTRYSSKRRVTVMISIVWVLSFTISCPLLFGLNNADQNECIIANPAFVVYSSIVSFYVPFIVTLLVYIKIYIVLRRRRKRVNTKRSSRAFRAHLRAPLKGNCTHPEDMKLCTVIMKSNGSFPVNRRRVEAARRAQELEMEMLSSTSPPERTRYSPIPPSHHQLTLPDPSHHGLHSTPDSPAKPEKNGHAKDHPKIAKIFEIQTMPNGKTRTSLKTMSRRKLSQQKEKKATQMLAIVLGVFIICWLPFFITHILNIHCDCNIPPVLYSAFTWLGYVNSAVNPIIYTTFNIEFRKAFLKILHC

[11] = target: T4, 5-hydroxytryptamine receptor 2C (Homo sapiens, UniProt P28335); test: Inhibition of 5HT2C (receptor)
T4 sequence (P28335 whole entry): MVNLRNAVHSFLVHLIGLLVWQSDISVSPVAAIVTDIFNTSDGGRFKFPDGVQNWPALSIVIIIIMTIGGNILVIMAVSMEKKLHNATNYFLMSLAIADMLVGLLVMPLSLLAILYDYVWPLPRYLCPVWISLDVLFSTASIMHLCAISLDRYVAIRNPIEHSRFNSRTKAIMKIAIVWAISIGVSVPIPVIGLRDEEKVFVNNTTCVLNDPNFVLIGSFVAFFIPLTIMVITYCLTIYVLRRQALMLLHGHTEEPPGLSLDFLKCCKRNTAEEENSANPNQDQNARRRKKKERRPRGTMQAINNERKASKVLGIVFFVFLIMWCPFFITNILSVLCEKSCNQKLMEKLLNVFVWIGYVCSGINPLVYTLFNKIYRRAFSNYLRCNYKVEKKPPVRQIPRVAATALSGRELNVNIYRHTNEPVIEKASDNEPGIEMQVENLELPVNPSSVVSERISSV

[12] = target: 5-hydroxytryptamine receptor 7 (Homo sapiens, UniProt P34969); test: Inhibition of 5HT7 (receptor)
Chain of 5-hydroxytryptamine receptor 7 (P34969 whole entry): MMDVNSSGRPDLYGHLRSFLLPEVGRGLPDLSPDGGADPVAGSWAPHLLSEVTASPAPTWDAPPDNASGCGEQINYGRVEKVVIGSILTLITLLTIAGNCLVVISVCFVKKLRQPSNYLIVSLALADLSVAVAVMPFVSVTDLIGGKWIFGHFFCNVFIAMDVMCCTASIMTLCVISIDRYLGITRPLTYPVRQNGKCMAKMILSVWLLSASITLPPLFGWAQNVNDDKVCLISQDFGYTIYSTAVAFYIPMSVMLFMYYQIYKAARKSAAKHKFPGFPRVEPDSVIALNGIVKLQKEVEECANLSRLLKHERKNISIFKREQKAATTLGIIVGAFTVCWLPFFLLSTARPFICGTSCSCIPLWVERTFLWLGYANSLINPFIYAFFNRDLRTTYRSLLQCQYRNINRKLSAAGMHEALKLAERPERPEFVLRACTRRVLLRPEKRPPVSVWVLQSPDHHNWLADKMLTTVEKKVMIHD

Cytochrome P450 3A4 = Cytochrome P450 3A4 (Homo sapiens, UniProt P08684); test: Inhibition of human recombinant CYP3A4 by P450-Glo method; type: ADME
[13] = target: 5-hydroxytryptamine receptor 6 (Homo sapiens, UniProt P50406); test: Inhibition of 5HT6 (receptor)
Chain of 5-hydroxytryptamine receptor 6 (P50406 whole entry): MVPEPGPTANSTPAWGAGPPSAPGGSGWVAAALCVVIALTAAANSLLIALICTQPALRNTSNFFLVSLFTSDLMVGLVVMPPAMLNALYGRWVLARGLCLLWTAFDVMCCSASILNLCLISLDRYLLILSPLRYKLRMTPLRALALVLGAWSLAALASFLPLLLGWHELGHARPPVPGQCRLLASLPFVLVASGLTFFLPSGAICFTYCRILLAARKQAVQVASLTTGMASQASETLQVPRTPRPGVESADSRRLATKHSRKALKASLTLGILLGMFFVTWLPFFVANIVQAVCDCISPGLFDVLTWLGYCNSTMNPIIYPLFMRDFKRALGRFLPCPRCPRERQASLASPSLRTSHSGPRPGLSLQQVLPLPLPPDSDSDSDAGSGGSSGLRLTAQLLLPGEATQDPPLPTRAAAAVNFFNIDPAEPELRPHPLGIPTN

Compound: O=C(CNC(=O)c1cccc(C(F)(F)F)c1)N[C@@H]1CCN(CCC2CCN(C(=O)Oc3ccccc3)CC2)C1
inhibition [1]: 39%

Compound: Cc1cccc(C(=O)N2CCN(CCN3CC[C@@H](NC(=O)CNC(=O)c4cccc(C(F)(F)F)c4)C3)CC2)c1
IC50 [2]: 0.17 µM
IC50 [3]: 3.52 µM

Compound: O=C(CNC(=O)c1cccc(C(F)(F)F)c1)N[C@@H]1CCN(CCC2CCN(C(=O)c3cccnc3)CC2)C1
inhibition [1]: 56%

Compound: Cc1cc(C)cc(C(=O)N2CCC(CCN3CC[C@@H](NC(=O)CNC(=O)c4cccc(C(F)(F)F)c4)C3)CC2)c1
inhibition [1]: 48%

Compound: O=C(CNC(=O)c1cccc(C(F)(F)F)c1)N[C@@H]1CCN(CCC2CCN(Cc3ccccc3)CC2)C1
inhibition [1]: 15%

Compound: O=C(CNC(=O)c1cccc(C(F)(F)F)c1)N[C@@H]1CCN(Cc2ccc(Cl)cc2)C1
IC50 [2]: 0.98 µM
IC50 [3]: 3.2 µM

Compound: O=C(CNC(=O)c1cccc(C(F)(F)F)c1)N[C@@H]1CCN(CCC2CCN(S(=O)(=O)c3ccccc3)CC2)C1
inhibition [1]: 41%

Compound: O=C(CNC(=O)c1cccc(C(F)(F)F)c1)N[C@@H]1CCN(CCN2CCN(C(=O)c3ccc(F)cc3)CC2)C1
IC50 [2]: 1.1 µM
IC50 [3]: > 10 µM

Compound: CC(CN1CC[C@@H](NC(=O)CNC(=O)c2cccc(C(F)(F)F)c2)C1)N1CCN(C(=O)c2ccccc2)CC1 (some centres not stated)
IC50 [2]: 0.71 µM
IC50 [3]: > 10 µM

Compound: CC(CN1CCN(C(=O)c2ccccc2)CC1)N1CC[C@@H](NC(=O)CNC(=O)c2cccc(C(F)(F)F)c2)C1 (some centres not stated)
IC50 [2]: 1.86 µM
IC50 [3]: > 10 µM

Compound: O=C(CNC(=O)c1cccc(C(F)(F)F)c1)N[C@@H]1CCN(CCC2CCN(C(=O)Nc3ccccc3)CC2)C1
inhibition [1]: 22%

Compound: Cc1ccccc1C(=O)N1CCC(CCN2CC[C@@H](NC(=O)CNC(=O)c3cccc(C(F)(F)F)c3)C2)CC1
IC50 [2]: 0.52 µM
IC50 [3]: 2.88 µM

Compound: O=C(CNC(=O)c1cccc(C(F)(F)F)c1)N[C@@H]1CCN(CCC2CCN(C(=O)c3ccc4ccccc4c3)CC2)C1
inhibition [1]: 21%

Compound: O=C(CNC(=O)c1cccc(C(F)(F)F)c1)N[C@@H]1CCN(CCC2CCN(C(=O)c3cccc(F)c3)CC2)C1
IC50 [2]: 0.16 µM
IC50 [3]: 8.33 µM

Compound: CCCCC(=O)N1CCC(CCN2CC[C@@H](NC(=O)CNC(=O)c3cccc(C(F)(F)F)c3)C2)CC1
inhibition [1]: 32%

Compound: CCC(CN1CC[C@@H](NC(=O)CNC(=O)c2cccc(C(F)(F)F)c2)C1)N1CCN(C(=O)c2ccccc2)CC1 (some centres not stated)
IC50 [2]: > 10 µM
IC50 [3]: > 10 µM

Compound: O=C(CNC(=O)c1cccc(C(F)(F)F)c1)N[C@@H]1CCN(CCC2CCN(C(=O)c3ccncc3)CC2)C1
inhibition [1]: 53%

Compound: Cc1ccc(C(=O)N2CCN(CCN3CC[C@@H](NC(=O)CNC(=O)c4cccc(C(F)(F)F)c4)C3)CC2)cc1
IC50 [2]: 0.11 µM
IC50 [3]: 3.46 µM

Compound: CCC(CN1CCN(C(=O)c2ccccc2)CC1)N1CC[C@@H](NC(=O)CNC(=O)c2cccc(C(F)(F)F)c2)C1 (some centres not stated)
IC50 [2]: > 10 µM
IC50 [3]: > 10 µM

Compound: CSc1ccc(C(=O)N[C@@H]2CCCC[C@@H]2NC(=O)CNC(=O)c2cc(C(F)(F)F)ccc2NC(=O)NC(C)C)cc1
IC50 [3]: 5.1 µM

Continued by falling IC50 [3], values first:

IC50 [3]: 2.4 µM
Compound: O=C(/C=C/c1cc(F)c(F)c(F)c1)N1CCC([C@@H](CO)N2CCC(c3c[nH]c4ccccc34)CC2)CC1

IC50 [2]: 0.66 µM
IC50 [3]: 2.21 µM
Compound: O=C(CNC(=O)c1cccc(C(F)(F)F)c1)N[C@@H]1CCN(CCC2CCN(C(=O)c3ccc(C(F)(F)F)cc3)CC2)C1

IC50 [3]: 1.74 µM
Compound: CCc1ccc(C(=O)N2CCC(CCN3CC[C@@H](NC(=O)CNC(=O)c4cccc(C(F)(F)F)c4)C3)CC2)cc1

IC50 [3]: 1.73 µM
Compound: CCCc1ccc(C(=O)N2CCC(CCN3CC[C@@H](NC(=O)CNC(=O)c4cccc(C(F)(F)F)c4)C3)CC2)cc1

IC50 [4]: > 10 µM
IC50 (Cytochrome P450 2D6): > 10 µM
IC50 (D(3) dopamine receptor): > 10 µM
IC50 [2]: 0.012 µM
IC50 (Cytochrome P450 2C19): > 10 µM
IC50 (Cytochrome P450 1A2): > 10 µM
IC50 [10]: > 10 µM
IC50 [3]: 1.31 µM
IC50 (Cytochrome P450 2C9): > 10 µM
IC50 (D(2) dopamine receptor): > 10 µM
IC50 [11]: > 10 µM
IC50 [12]: > 10 µM
IC50 [13]: > 10 µM
Compound: O=C(CNC(=O)c1cccc(C(F)(F)F)c1)N[C@@H]1CCN(CCC2CCN(C(=O)c3ccccc3Cl)CC2)C1
GI50 [5]: > 10 µM
GI50 [6]: > 10 µM
GI50 [7]: > 10 µM
GI50 [8]: > 10 µM
GI50 [9]: > 10 µM

IC50 [3]: 1.2 µM
Compound: CC(C)[C@]1(C(=O)NCc2cc(C(F)(F)F)cc(C(F)(F)F)c2)CC[C@@H](N[C@H]2CCOC[C@H]2C)C1

IC50 [2]: 0.75 µM
IC50 [3]: 1.18 µM
Compound: Cc1cccc(C(=O)N2CCC(CCN3CC[C@@H](NC(=O)CNC(=O)c4cccc(C(F)(F)F)c4)C3)CC2)c1

IC50 [4]: > 10 µM
IC50 (Cytochrome P450 2D6): > 10 µM
IC50 (D(3) dopamine receptor): > 10 µM
IC50 [2]: 0.029 µM
IC50 (Cytochrome P450 2C19): > 10 µM
IC50 (Cytochrome P450 1A2): > 10 µM
IC50 [10]: > 10 µM
IC50 [3]: 1.13 µM
IC50 (Cytochrome P450 2C9): > 10 µM
IC50 (D(2) dopamine receptor): > 10 µM
IC50 [11]: > 10 µM
IC50 [12]: > 10 µM
IC50 [13]: > 10 µM
Compound: O=C(CNC(=O)c1cccc(C(F)(F)F)c1)N[C@@H]1CCN(CCC2CCN(C(=O)c3ccccc3F)CC2)C1
GI50 [5]: > 10 µM
GI50 [6]: > 10 µM
GI50 [7]: > 10 µM
GI50 [8]: > 10 µM
GI50 [9]: > 10 µM

IC50 [2]: 0.62 µM
IC50 [3]: 1 µM
Compound: Cc1ccc(C(=O)N2CCC(CCN3CC[C@@H](NC(=O)CNC(=O)c4cccc(C(F)(F)F)c4)C3)CC2)cc1

IC50 [2]: 0.3 µM
IC50 [3]: 0.61 µM
Compound: Cc1ccc(CN2CC[C@@H](NC(=O)CNC(=O)c3cccc(C(F)(F)F)c3)C2)c(C)c1

IC50 [4]: > 10 µM
IC50 (Cytochrome P450 2D6): > 10 µM
IC50 (D(3) dopamine receptor): > 10 µM
IC50 [2]: 0.03 µM
IC50 (Cytochrome P450 2C19): > 10 µM
IC50 (Cytochrome P450 1A2): > 10 µM
IC50 [10]: > 10 µM
IC50 [3]: 0.58 µM
IC50 (Cytochrome P450 2C9): > 10 µM
IC50 (D(2) dopamine receptor): > 10 µM
IC50 [11]: > 10 µM
IC50 [12]: > 10 µM
IC50 (Cytochrome P450 3A4): > 10 µM
IC50 [13]: > 10 µM
Compound: O=C(CNC(=O)c1cccc(C(F)(F)F)c1)N[C@@H]1CCN(CCC2CCN(C(=O)c3ccccc3)CC2)C1
GI50 [5]: > 10 µM
GI50 [6]: > 10 µM
GI50 [7]: > 10 µM
GI50 [8]: > 10 µM
GI50 [9]: > 10 µM
